Data as given in ChEMBL document CHEMBL1201862, “PubChem BioAssay data set” (2004).
The source made the active and inactive calls.

What was measured:
[1] = molecular target: Eukaryotic translation initiation factor 4E (Mus musculus, UniProt P63073); assay: blockers of eIF4G binding by eIF4E – biochemical, TR-FRET, dose response (AID 855); type: functional;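 note: potency for disrupting eIF4E binding to eIF4GI seen as loss of FRET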
[2] = system: Streptococcus sp. 'group A'; assay: Streptococcus pyogenes SK(-)GAS viability under kanamycin – luminescence, BacTiterGlo, confirmation, counter-screen for streptokinase expression inhibitor project, dose response (AID 1900); type: functional, organism-based
Streptokinase A = molecular target: T1, Streptokinase A (Streptococcus pyogenes serotype M1, UniProt P10520); assay: viability-normalized secreted streptokinase activity reduction – plasminogen activation absorbance, OD405, dose response (AID 1914); type: functional, Streptococcus pyogenes M1 GAS;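 note: secreted streptokinase activity via plasminogen activation per viability signal from cell pellet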
T1 sequence (P10520 whole entry): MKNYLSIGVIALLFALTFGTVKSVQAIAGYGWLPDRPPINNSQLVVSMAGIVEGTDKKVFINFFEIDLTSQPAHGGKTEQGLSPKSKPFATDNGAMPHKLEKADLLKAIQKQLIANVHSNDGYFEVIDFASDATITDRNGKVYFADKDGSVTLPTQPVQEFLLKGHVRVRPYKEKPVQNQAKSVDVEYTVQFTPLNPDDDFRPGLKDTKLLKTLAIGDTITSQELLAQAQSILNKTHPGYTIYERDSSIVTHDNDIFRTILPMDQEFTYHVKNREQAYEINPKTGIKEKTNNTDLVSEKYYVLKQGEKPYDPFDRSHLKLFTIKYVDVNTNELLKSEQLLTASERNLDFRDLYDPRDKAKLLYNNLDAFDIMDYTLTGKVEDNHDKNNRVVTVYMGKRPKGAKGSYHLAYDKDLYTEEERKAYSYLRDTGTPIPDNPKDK

Streptococcus = assay: GAS UMAA2166 growth inhibition – luminescence, BacTiterGlo, counter-screen for streptokinase expression inhibitor project, dose response (AID 1915); type: functional, organism-based;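 note: potency for reduction of bacterial viability or growth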
[3] = Vero E6 cell cytotoxicity, dose response, cytotoxicity control for non-replicating M. tuberculosis project, secondary assay (AID 492998); type: functional, VeroE6; details: Vero C1008
cells = type: functional
Large T antigen = Large T antigen (Simian virus 40, UniProt P03070); type: functional, Betapolyomavirus macacae;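 note: Confirmatory-stage PubChem screen for compounds that inhibit SV40 T antigen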
Chain of Large T antigen (P03070 whole entry): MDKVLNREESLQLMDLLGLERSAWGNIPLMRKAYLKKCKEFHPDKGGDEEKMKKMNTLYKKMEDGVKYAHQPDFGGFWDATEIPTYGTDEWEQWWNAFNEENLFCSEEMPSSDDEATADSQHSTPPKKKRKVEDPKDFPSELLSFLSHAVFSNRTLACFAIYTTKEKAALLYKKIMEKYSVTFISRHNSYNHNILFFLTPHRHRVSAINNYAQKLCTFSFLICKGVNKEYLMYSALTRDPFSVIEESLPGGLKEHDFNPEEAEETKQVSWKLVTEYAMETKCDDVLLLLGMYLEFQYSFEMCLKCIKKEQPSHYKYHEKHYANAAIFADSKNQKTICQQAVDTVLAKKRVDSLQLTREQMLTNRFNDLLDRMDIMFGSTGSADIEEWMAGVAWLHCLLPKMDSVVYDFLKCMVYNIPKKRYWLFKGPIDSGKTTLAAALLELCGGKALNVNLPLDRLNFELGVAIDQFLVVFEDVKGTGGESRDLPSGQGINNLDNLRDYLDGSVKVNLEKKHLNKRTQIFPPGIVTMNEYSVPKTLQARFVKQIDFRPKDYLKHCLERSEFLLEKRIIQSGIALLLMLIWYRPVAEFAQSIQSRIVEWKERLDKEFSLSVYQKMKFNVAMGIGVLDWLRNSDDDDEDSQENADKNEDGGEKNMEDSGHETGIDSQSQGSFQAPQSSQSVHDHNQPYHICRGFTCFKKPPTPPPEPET

[4] = luciferase reporter signal suppression in cells – H4 neuroglioma cells, luminescence, dose response (AID 1990); type: functional, cell-based
[5] = Luminescence Cell-Based Dose Response HTS to Identify Inhibitors of 5'UTR Stem-Loop Driven Prion Protein mRNA Translation in H4 Neuroglioblastoma Cells. [Related pubchem assays: 1827 (Project Summary), 1813 (Primary HTS)]; type: functional
[6] = alpha-synuclein stem-loop luciferase translation blockers – H4 neuroglioma cells, luminescence, confirmation (AID 1988); type: functional, cell-based
[7] = Luminescence Cell-Based Dose Retest to Confirm Inhibitors of Cancer Stem Cells. [Related pubchem assays (depositor defined):AID2717, AID2721]; type: functional; details: Homo sapiens
Vero [8] = assay: cells; type: functional; details: Chlorocebus sabaeus
[9] = molecular target: T2, Carboxy-terminal domain RNA polymerase II polypeptide A small phosphatase 1 (Homo sapiens, UniProt Q9GZU7); assay: CTDSP1 inhibitors, concentration-response, biochemical, absorbance readout, ultra-high-throughput screen actives (AID 540297); type: functional
T2 sequence (Q9GZU7 whole entry): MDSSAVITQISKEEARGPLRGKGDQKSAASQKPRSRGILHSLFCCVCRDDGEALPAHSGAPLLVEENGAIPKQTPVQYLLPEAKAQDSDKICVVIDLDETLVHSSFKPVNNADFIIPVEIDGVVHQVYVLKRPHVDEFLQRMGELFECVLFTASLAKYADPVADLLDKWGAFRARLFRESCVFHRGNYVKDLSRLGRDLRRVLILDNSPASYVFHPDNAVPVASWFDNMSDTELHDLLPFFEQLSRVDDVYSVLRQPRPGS

[10] = THP-1 cell cytotoxicity, dose response, cytotoxicity control for non-replicating M. tuberculosis project (AID 489025); type: functional
[11] = molecular target: T3, Heat shock factor protein 1 (Mus musculus, UniProt P38532); assay: enhancement of HSF1-driven luciferase signal – cell-based, NIH3T3, luminescence, dose retest, confirmation (AID 435004); type: functional;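 note: stress induced by proteasome inhibitor MG132 added 30 min after compound; luciferase reporter driven by HSF1 response element in NIH3T3 cells; actives raise luminescence as potentiators of the MG132 stress response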
T3 sequence (P38532 whole entry): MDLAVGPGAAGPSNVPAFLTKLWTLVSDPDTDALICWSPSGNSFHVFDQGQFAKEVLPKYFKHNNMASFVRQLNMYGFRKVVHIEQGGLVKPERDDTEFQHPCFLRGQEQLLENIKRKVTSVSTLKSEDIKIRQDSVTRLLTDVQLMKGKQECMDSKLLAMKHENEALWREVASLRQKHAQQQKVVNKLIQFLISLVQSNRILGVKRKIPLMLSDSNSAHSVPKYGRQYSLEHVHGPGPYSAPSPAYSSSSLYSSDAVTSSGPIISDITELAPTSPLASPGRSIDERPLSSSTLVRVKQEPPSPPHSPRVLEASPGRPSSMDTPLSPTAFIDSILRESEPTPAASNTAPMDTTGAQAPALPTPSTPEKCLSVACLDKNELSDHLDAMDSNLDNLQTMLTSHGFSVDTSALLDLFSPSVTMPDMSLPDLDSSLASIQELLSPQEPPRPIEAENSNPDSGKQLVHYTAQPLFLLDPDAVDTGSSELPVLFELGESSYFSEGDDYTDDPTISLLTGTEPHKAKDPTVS

[12] = molecular target: Glucose-6-phosphate 1-dehydrogenase (Homo sapiens, UniProt P11413); assay: inhibition of Homo sapiens G6PD, dose series – biochemical, fluorescence, selectivity assay for P. falciparum G6PD inhibitor project, dose response (AID 504792); type: functional
Chain of Glucose-6-phosphate 1-dehydrogenase (P11413 whole entry): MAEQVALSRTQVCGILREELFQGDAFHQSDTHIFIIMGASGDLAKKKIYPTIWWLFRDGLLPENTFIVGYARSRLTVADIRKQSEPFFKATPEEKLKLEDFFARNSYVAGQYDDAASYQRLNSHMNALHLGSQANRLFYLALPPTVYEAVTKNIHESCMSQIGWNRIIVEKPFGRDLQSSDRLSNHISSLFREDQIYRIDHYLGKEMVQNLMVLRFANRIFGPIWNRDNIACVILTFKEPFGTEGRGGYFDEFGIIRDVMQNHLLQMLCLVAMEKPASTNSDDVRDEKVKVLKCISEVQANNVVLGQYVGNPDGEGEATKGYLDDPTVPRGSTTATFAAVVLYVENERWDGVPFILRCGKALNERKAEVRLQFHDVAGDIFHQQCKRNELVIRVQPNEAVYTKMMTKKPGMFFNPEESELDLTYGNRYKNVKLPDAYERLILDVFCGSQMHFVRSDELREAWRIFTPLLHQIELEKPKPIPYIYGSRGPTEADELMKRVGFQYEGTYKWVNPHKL

[13] = molecular target: T4, Rac GTPase-activating protein 1 (Homo sapiens, UniProt Q9H0H5); assay: blockers of MgcRacGAP-driven Rac1 GTP hydrolysis – biochemical, ADP Hunter fluorescence, primary and confirmatory, confirmation (AID 624330); type: functional
T4 sequence (Q9H0H5 whole entry): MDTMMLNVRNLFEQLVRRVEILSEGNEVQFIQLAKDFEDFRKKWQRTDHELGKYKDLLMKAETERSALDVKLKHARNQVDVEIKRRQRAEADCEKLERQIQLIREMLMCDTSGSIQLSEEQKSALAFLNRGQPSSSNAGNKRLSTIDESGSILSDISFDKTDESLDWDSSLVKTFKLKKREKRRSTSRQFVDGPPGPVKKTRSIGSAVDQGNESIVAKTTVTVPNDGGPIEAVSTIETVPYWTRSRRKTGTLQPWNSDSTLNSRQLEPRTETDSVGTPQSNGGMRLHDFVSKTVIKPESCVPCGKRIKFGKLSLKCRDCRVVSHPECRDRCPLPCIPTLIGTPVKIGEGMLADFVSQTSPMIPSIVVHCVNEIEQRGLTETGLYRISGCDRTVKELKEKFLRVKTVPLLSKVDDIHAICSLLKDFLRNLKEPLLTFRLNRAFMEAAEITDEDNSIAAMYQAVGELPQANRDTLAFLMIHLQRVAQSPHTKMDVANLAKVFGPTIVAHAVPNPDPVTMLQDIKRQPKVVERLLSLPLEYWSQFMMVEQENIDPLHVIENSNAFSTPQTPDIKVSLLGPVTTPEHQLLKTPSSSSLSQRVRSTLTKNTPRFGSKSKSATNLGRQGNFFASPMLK

[14] = molecular target: Induced myeloid leukemia cell differentiation protein Mcl-1 (Homo sapiens, UniProt Q07820); type: functional
Chain of Induced myeloid leukemia cell differentiation protein Mcl-1 (Q07820 whole entry): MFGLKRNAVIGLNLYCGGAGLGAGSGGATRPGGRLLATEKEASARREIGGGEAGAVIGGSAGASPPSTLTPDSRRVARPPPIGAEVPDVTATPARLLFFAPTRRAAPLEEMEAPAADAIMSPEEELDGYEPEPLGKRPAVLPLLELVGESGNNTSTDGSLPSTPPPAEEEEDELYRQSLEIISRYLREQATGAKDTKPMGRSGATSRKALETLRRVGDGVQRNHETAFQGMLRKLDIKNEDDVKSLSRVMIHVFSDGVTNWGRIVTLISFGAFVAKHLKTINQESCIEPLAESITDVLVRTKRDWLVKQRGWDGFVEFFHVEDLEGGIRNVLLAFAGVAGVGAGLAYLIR

[15] = molecular target: 26S proteasome non-ATPase regulatory subunit 14 (Homo sapiens, UniProt O00487); assay: inhibition of proteasome subunit RPN11 – biochemical, fluorescence polarization, uHTS hits, confirmation (AID 602368); type: functional
[16] = molecular target: 72 kDa type IV collagenase (Homo sapiens, UniProt P08253); assay: Dose Response validation of uHTS RPN11 inhibitor hits using a MMP-2 Fluorescence assay.; type: functional
Chain of 72 kDa type IV collagenase (P08253 whole entry): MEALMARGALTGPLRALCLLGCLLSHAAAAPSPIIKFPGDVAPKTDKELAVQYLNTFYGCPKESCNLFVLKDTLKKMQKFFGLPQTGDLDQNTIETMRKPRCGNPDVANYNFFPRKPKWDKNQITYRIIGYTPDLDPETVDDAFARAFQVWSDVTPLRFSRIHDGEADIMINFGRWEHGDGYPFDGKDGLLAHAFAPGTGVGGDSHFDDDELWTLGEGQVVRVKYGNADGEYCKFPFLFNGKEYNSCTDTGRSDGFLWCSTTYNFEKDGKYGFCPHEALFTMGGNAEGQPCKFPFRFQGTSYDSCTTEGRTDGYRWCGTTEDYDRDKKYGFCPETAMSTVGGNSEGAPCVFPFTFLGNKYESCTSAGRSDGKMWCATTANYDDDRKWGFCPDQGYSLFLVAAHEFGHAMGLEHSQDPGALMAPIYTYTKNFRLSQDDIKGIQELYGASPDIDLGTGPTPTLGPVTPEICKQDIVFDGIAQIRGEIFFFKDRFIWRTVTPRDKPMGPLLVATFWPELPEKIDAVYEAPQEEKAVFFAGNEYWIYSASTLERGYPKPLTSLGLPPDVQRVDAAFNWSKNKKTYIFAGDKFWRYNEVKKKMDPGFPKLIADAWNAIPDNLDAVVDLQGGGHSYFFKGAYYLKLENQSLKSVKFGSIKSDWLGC

Prothrombin = Prothrombin (Bos taurus, UniProt P00735); assay: thrombin protease inhibitors – biochemical, fluorescence polarization, uHTS hits, dose response (AID 602369); type: functional
[17] = molecular target: FAD-linked sulfhydryl oxidase ALR (Homo sapiens, UniProt P55789); assay: ALR-catalysed DTT oxidation blockers – biochemical, H2O2 detection, luminescence, cherry-pick, dose response (AID 493248)
Chain of FAD-linked sulfhydryl oxidase ALR (P55789 whole entry): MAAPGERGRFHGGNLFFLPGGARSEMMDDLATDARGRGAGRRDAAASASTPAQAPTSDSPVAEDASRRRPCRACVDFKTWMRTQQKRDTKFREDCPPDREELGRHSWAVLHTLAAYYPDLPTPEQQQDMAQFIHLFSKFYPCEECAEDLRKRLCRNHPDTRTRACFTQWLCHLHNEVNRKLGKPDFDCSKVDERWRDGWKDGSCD

Vero [18] = assay: viability of Vero cells under compound – cytotoxicity control for flavivirus capping enzyme inhibitors (AID 588742); type: functional; details: Chlorocebus sabaeus
Cytochrome P450 2C9 = Cytochrome P450 2C9 (Homo sapiens, UniProt P11712)
[19] = molecular target: T5, Calpain-2 catalytic subunit (Sus scrofa, UniProt P43367); assay: m-calpain protease blockers, concentration series – biochemical, fluorogenic peptide substrate, dose response (AID 1420); type: functional
T5 sequence (P43367 whole entry): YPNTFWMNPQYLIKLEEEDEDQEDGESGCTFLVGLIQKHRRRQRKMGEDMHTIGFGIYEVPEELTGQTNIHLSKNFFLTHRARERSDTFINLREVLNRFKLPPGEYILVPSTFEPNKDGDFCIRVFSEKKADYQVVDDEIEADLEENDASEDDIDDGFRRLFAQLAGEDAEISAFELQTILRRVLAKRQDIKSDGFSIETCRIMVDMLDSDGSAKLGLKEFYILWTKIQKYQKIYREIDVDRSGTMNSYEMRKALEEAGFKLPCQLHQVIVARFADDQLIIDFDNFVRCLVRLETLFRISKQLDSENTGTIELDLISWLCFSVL

[20] = molecular target: Voltage-dependent T-type calcium channel subunit alpha-1H (Homo sapiens, UniProt O95180); type: functional;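 note: channel activity triggered by adding a high calcium stimulation buffer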
Chain of Voltage-dependent T-type calcium channel subunit alpha-1H (O95180 whole entry): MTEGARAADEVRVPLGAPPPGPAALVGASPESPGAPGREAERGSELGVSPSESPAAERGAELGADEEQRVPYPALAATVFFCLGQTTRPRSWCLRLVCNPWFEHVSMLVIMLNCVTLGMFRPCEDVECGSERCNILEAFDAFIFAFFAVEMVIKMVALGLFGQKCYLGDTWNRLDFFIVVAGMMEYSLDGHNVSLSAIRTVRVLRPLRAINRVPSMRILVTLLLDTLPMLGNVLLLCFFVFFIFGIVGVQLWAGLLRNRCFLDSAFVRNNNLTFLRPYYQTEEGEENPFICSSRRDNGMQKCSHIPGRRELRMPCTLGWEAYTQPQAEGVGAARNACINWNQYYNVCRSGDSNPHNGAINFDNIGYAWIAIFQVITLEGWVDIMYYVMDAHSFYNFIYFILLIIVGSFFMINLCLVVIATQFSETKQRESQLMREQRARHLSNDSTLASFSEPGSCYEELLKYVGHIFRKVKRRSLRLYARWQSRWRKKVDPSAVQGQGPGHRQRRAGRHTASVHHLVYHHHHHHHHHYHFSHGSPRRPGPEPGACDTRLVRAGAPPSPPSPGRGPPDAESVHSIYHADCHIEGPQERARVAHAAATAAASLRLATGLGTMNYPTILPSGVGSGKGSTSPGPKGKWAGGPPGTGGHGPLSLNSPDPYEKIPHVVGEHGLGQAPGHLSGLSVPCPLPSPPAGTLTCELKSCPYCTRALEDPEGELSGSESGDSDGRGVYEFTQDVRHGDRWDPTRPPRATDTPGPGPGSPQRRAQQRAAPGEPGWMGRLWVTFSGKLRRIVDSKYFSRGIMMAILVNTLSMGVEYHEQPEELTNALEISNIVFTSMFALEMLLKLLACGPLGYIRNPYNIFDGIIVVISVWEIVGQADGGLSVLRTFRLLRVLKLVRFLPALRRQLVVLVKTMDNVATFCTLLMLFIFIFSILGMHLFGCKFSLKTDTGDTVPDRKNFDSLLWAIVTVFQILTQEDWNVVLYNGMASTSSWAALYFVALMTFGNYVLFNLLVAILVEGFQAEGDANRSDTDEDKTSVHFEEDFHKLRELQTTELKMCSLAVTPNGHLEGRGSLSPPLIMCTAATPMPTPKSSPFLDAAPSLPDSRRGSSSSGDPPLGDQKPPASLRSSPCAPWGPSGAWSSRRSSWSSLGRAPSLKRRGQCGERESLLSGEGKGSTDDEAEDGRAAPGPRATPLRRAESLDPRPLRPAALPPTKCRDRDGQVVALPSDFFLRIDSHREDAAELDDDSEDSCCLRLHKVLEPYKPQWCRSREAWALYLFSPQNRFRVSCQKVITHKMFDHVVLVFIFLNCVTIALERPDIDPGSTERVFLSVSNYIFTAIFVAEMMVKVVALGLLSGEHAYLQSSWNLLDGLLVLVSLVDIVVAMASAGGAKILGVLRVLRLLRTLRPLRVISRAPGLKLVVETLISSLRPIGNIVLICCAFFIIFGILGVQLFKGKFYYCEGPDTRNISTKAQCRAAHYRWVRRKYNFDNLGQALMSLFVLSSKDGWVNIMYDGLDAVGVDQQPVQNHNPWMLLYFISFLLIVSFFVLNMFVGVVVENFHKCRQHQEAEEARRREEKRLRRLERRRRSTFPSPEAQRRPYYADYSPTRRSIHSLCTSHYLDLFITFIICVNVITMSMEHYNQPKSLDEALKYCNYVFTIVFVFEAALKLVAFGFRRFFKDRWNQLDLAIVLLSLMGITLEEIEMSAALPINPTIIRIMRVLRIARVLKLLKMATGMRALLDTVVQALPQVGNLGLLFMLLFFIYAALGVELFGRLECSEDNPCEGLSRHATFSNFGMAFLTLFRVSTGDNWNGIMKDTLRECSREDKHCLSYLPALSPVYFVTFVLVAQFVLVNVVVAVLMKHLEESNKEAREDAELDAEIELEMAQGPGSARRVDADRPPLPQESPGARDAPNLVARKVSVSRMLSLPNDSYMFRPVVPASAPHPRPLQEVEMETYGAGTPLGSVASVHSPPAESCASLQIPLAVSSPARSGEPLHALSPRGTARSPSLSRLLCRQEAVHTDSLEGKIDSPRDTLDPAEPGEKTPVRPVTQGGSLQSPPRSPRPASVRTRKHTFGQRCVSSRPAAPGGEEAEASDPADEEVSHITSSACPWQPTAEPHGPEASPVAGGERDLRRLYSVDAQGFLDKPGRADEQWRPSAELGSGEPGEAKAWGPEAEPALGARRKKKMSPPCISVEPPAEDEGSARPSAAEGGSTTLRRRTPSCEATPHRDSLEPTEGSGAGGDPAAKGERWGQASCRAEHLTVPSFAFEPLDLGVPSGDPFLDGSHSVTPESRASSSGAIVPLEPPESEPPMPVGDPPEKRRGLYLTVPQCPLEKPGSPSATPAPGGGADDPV

Leucine aminopeptidase = molecular target: T6, Leucine aminopeptidase (Plasmodium falciparum 3D7, UniProt Q8IL11); assay: P. falciparum M17LAP inhibitors, primary screen, biochemical, fluorogenic H-Leu-NHMec substrate, 1536-well (AID 1619); type: functional
T6 sequence (Q8IL11 whole entry): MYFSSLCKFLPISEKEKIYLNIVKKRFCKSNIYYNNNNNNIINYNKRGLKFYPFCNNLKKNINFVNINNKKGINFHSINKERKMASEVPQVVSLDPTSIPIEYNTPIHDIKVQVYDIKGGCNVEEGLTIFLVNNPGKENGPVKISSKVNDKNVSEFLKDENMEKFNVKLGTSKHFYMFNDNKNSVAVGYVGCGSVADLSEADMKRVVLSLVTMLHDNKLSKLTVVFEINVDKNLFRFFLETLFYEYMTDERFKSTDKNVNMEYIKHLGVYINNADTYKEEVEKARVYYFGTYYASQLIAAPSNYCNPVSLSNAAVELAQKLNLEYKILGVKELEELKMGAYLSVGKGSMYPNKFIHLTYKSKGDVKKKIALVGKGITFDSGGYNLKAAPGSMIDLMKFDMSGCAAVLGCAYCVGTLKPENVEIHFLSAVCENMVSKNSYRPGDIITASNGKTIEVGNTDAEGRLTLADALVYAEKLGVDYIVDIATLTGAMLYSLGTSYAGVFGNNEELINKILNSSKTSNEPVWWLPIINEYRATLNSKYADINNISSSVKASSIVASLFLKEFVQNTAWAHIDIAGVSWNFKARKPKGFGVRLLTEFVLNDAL

Chain of Eukaryotic translation initiation factor 4E (P63073 whole entry): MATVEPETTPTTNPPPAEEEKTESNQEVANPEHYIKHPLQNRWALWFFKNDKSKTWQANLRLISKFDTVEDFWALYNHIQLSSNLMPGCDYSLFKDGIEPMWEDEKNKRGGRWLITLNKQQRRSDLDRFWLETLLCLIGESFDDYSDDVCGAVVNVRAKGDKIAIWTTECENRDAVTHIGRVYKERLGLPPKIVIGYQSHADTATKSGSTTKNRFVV

Cc1cccc(-c2nnc(SCC3CNC(=O)O3)n2-c2ccc(Cl)cc2)c1 (stereo not given)
IC50 [1]: > 64 µM (inactive)

O=C(Nc1nccs1)c1sc2ccccc2c1Cl
EC50 [2]: 18.4 µM (active) | EC50 (Streptokinase A): > 150 µM (not active) | EC50 (Streptococcus): > 150 µM (not active) | CC50 [3]: > 20 µM (active) | IC50 (cells): 20.5 µM (active)

CCCCN1C(=O)/C(=C(/C#N)C(N)=O)c2ccccc21
IC50 (Large T antigen): 60.5 µM (active)

COc1ccc(CCn2c(C3CCCCC3)nc3c(c(=O)c4ccccc4n3C)c2=O)cc1
EC50 [4]: > 120 µM (not active) | EC50 [5]: 0.438 µM (active) | EC50 [6]: 17.1 µM (active) | AC50 [7]: 2.4 µM (active) | CC50 (Vero [8]): 9.23 µM (active)

CC[N+]1=CN(c2ccccc2)C(C)=CC1(C)C
IC50 [9]: 6.23 µM (active)

CC1(C)CC(=O)C2=C(C1)OC(N)=C(C#N)C2C#Cc1ccccc1 (stereo not given)
CC50 [10]: 38.4 µM (active) | EC50 [11]: 38.3 µM (active)

Cc1cc(OCC[N+]2(C)CCCCC2)nc2ccccc12
IC50 [9]: 3.69 µM (active)

O=C(c1ccc2ccccc2c1)N1CCN(c2ccc(O)cc2)CC1
IC50 (Large T antigen): 9.84 µM (active)

O=C1NC(=S)N(Cc2ccco2)C(=O)/C1=C\c1cccs1
IC50 [1]: 9.49 µM (active)

CC(=O)c1cccc(NC(=O)c2cnn(-c3ccccc3)c2C)c1
IC50 [12]: > 80 µM (inactive)

O=C(CNC1CCCC1)Nc1ccc(N2CCCCCC2)cc1
CC50 [3]: 18.1 µM (active) | IC50 (cells): 17.8 µM (active) | IC50 [13]: 75.8 µM (active)

O=[N+]([O-])C(=c1ccc2c(c1)N1C3=C(CCCC3)CC3CCCCC31N=2)[N+](=O)[O-] (stereo not given)
IC50 [14]: 1.95 µM (active)

O=C(O)c1ccc(COc2ccccc2/C=C2/NC(=O)N(c3cccc(Cl)c3)C2=O)cc1
IC50 [9]: 2.75 µM (active) | IC50 [15]: 18.7 µM (active) | IC50 [16]: 15.6 µM (active) | IC50 (Prothrombin): > 100 µM (inactive)

N#Cc1ccc(-c2csc(NC3=NCCCCC3)n2)cc1
IC50 [1]: > 64 µM (inactive)

CCN(CC)c1ccc(NC(=O)c2cccc(F)c2)c(C)c1
IC50 (Large T antigen): 28.3 µM (active) | AC50 [17]: 1.19 µM (active) | CC50 (Vero [18]): > 40 µM (active) | AC50 (Cytochrome P450 2C9): inconclusive

Cc1ccc2oc(=O)n(Cc3ccccc3OC(C)C)c2c1
IC50 [19]: > 50 µM (not active) | EC50 [20]: 8.57 µM (active)

O=C1CSC(=S)N1/N=C/c1ccc(O)c([N+](=O)[O-])c1
IC50 (Large T antigen): 26.8 µM (active) | IC50 [14]: 6.99 µM (active)

O=C(Nc1nc(=O)[nH]s1)c1ccccc1
IC50 (Leucine aminopeptidase): 18.1 µM (active) | IC50 [19]: > 50 µM (not active)

COc1cc(/C=N\Nc2cc(=O)n(C)c(=O)n2C)ccc1O
IC50 (Large T antigen): 23.7 µM (active) | IC50 [13]: 33.7 µM (active)
